Assay results from patent US7250269B2, “Composition for assaying glycoprotein” (Asahi Kasei Pharma Corporation, priority 2001, dated 2007).
Like-named read-outs stand apart in the source and are kept apart here. Each block holds one molecule with its values, some of them ahead of it.

Assays:
Protease type-XXIV = experiment: Screening of globulin component-selective protease inhibitors (HSA substrate with/without γ-globulin); assay type: biochemical, Bacillus; details: additive concentration 1.0%; control 23.8
Description: Using protease type-XXIV (manufactured by Sigma-Aldrich Co.) having high reactivity with the HSA substrate solution, components that decrease the protease reaction with the above globulin substrate solutions were screened based on the HSA substrate solution.
In the R-1 proteolytic reagent, as the deoxycholic acid amide, bisgluconamidopropyldeoxycholamide was used; as the cholic acid amide, 3-[(3-cholamidopropyl)dimethvlammonio]propane sulfonic acid, 3-[(3-cholamidopropyl)dimethylammonio]-2-hydroxypropane sulfonic acid, or bisgluconamidopropylcholamide was used; as the quaternary ammonium salt, benzyltriethylan chloride or benzyltri-n-butylammonium chloride was used; and as quatemary ammonium salt-type cationic surfactant, lauryltrimethylammonium chloride or lauryldimethylamine oxide was used.
• 1. HSA substrate solution: Albumin Human: 40 mg/ml, GA %=10.5% [manufactured by Wako Pure Chemical Industries, Ltd., the albumin concentration in the substrate solution was assayed using an albumin assay kit (albumin II-HA Test Wako; manufactured by Wako Pure Chemical Industries, Ltd.). GA % was assayed using a glycated albumin analyzer (GAA-2000, manufactured by ARKRAY, Inc.). • 2. γ-globulin addition substrate solution, 17.0 mg/ml of γ-globulin [γ-Globulins Human (manufactured by Sigma-Aldrich Co.), Fructosamine value=34 μM] was added to the above HSA substrate solution. <Reaction Procedure>
Absorbances at a wavelength of 546 nm were measured before and after the addition of R-2. The difference of the two measurements was regarded as the absorbance change. The same procedure was conducted using distilled water instead of the substrate to prepare a blank sample. In addition, a reaction solution without the addition of the globulin-selective protease inhibitor was used as a control.
ΔA (HSA) was calculated by subtracting the absorbance change of the blank sample from the absorbance change obtained for the HSA substrate solution. ΔA(+γ-globulin) was calculated by subtracting the absorbance change of the blank sample from the absorbance change obtained for the substrate solution to which γ-globulin was added. Effect of γ-globulin addition=(ΔA(+γ-globulin)−ΔA(HSA))/ΔA(HSA)×100(%)

R-FOD-II = experiment: Stabilization of enzyme reacting at least with glycated amino acid; assay type: biochemical; details: for decrease in performance of glycated amino acid assay reagent: storage for four weeks at 37° C.; for stabilization effect on glycated amino acid assay reagent (relative sensitivity): without stabilizer 30%; for storage stability effect: stored in a liquid state in a refrigerator
Description: 8 μl of a sample was added to 240 μl of the proteolytic reagent incubated at 37° C. […] A relative sensitivity for the experiment using the reagent containing a stabilizer to the experiment using the reagent not containing a stabilizer was calculated assuming that ΔA0 obtained using the reagent not containing a stabilizer and used without storing is 100%.

albumin = target: T1, albumin (Homo sapiens, UniProt P02768); experiment: Albumin assay by BCP method after pretreatment with protein denaturing agent and/or compound having S—S bond; details: for albumin value by BCP method, sample GA: immunological method 8.1, no pretreatment 7.9; for albumin value by BCP method, sample NGA: immunological method 37.5, no pretreatment 36.1; for albumin value by BCP method, sample Blood serum of patients: immunological method 40.5, no pretreatment 36.2
T1 construct: from tissue; host or cells: human blood serum (healthy persons, patients; albumin purified with boric acid-immobilized resin)
T1 sequence (P02768 25-609): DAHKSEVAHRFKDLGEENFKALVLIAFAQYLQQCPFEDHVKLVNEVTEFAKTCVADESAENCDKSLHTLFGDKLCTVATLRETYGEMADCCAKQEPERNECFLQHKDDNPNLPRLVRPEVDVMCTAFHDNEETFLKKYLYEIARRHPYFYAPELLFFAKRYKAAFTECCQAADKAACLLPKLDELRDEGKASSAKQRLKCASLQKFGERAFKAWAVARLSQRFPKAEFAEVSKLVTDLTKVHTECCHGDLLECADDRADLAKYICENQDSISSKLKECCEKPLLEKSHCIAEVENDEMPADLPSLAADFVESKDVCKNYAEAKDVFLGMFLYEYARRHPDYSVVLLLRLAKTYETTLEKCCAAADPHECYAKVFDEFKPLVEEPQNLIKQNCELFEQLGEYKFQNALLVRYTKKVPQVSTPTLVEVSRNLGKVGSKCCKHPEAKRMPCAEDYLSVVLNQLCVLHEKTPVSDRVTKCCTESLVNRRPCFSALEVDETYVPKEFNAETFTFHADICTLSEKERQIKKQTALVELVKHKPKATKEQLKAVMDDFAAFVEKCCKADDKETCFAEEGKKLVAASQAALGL
Description: The following compounds 1)-9) were used as the protein denaturing agent and/or the compound having S—S bond in the R-1 pretreatment reagent. • 1) 6,6′-dithiodinicotinic acid: 100 mM • 2) 3,3′-dithiodipropionic acid: 100 mM • 3) 2,2′-dithiodibenzoic acid: 100 mM • 4) 4,4′-dithiodimorpholine: 100 mM • 5) DTNB (50 mM) • 6) DDD (33 mM) • 7) 2-PDS (25 mM) • 8) 4-PDS (50 mM) • 9) SDS (0.3%) • 1)-5) manufactured by Wako Pure Chemical Industries, Ltd. • 6)-9) manufactured by Dojindo Laboratories <Samples>
Glycated lbumin, non-glycated albumin, blood serum of healthy persons, and blood serum of patients were used as samples, and distilled water was used as a blank. Glycated albumin and non-glycated albumin were obtained from human blood serum, albumin was purified by known method and using a boric acid-immobilized resin.
2 μl of a sample was added to 160 μl of the pretreatment reagent incubated at 37° C. […] Absorbance at 600 nm was measured before the addition of the albumin coloring reagent and five minutes after the addition of the albumin coloring reagent. A calibration curve was prepared using distilled water and a sample with a known albumin concentration instead of the sample. A sample was separately assayed by an immune method using a latex reagent (LX reagent, Alb-II, manufactured by Eiken Chemical Co., Ltd.) as a control.

[1] = stored at 37° C. for two days, FIG. 6
[2] = pretreatment reagent at concentration of b299
[3] = pretreatment reagent at concentration of b299, immunological method 43.0, no pretreatment 38.4

decrease in performance of glycated amino acid assay reagent (R-FOD-II): almost no decrease in performance
stabilization effect on glycated amino acid assay reagent (relative sensitivity) (R-FOD-II; [1]): stabilization effect
storage stability effect (R-FOD-II): one or more years
Structure (SMILES): C[C@H](N)C(=O)O [L-alanine, L-Alanine]

stabilization effect on glycated amino acid assay reagent (relative sensitivity) (R-FOD-II; [1]): stabilization effect
Structure (SMILES): CC(C)[C@H](N)C(=O)O [L-valine, L-Valine]

albumin value by BCP method, sample GA (albumin; [2]): 7.9
albumin value by BCP method, sample NGA (albumin; [2]): 35.7
albumin value by BCP method, sample Blood serum of patients (albumin; [2]): 37.0
albumin value by BCP method, sample Blood serum of healthy parsons (albumin; [3]): 37.9
Structure (SMILES): O=C(O)CCSSCCC(=O)O [Reagent 2, 3,3′-dithiodipropionic acid]

effect of pretreatment on decreasing deviation from the immune method (albumin): particularly remarkable
albumin value by BCP method, sample GA (albumin; [2]): 7.7
albumin value by BCP method, sample NGA (albumin; [2]): 38.0
albumin value by BCP method, sample Blood serum of patients (albumin; [2]): 35.0
albumin value by BCP method, sample Blood serum of healthy parsons (albumin; [3]): 40.1
Structure (SMILES): O=C(O)c1ccccc1SSc1ccccc1C(=O)O [Reagent 3, 2,2′-dithiodibenzoic acid]

effect of pretreatment on decreasing deviation from the immune method (albumin): particularly remarkable
albumin value by BCP method, sample GA (albumin; [2]): 8.7
albumin value by BCP method, sample NGA (albumin; [2]): 38.4
albumin value by BCP method, sample Blood serum of patients (albumin; [2]): 35.5
albumin value by BCP method, sample Blood serum of healthy parsons (albumin; [3]): 38.3
Structure (SMILES): O=C(O)c1cc(SSc2ccc([N+](=O)[O-])c(C(=O)O)c2)ccc1[N+](=O)[O-] [Reagent 5, 5,5′-dithiobis-(2-nitrobenzoic acid)]

effect of pretreatment on decreasing deviation from the immune method (albumin): particularly remarkable
albumin value by BCP method, sample GA (albumin; [2]): 7.5
albumin value by BCP method, sample NGA (albumin; [2]): 36.2
albumin value by BCP method, sample Blood serum of patients (albumin; [2]): 36.2
albumin value by BCP method, sample Blood serum of healthy parsons (albumin; [3]): 38.8
Structure (SMILES): c1cc(SSc2ccncc2)ccn1 [Reagent 8, 4,4′-dithiopyridine]

stabilization effect on glycated amino acid assay reagent (relative sensitivity) (R-FOD-II; [1]): stabilization effect
Structure (SMILES): OC[C@@H](O)[C@@H](O)[C@H](O)[C@H](O)CO [mannitol, Mannitol]

decrease in performance of glycated amino acid assay reagent (R-FOD-II): almost no decrease in performance
strength of stabilization effect (R-FOD-II; [1]): particularly strong stabilization effect
stabilization effect on glycated amino acid assay reagent (relative sensitivity) (R-FOD-II; [1]): stabilization effect
storage stability effect (R-FOD-II): one or more years
Structure (SMILES): CNCC(=O)O [sarcosine, Sarcosine]

stabilization effect on glycated amino acid assay reagent (relative sensitivity) (R-FOD-II; [1]): stabilization effect
Structure (SMILES): OC[C@@H](O)[C@@H](O)[C@H](O)[C@@H](O)CO [sorbitol, Sorbitol]

stabilization effect on glycated amino acid assay reagent (relative sensitivity) (R-FOD-II; [1]): stabilization effect
Structure (SMILES): OC[C@H]1O[C@@](CO)(O[C@H]2O[C@H](CO)[C@@H](O)[C@H](O)[C@H]2O)[C@@H](O)[C@@H]1O [sucrose, Sucrose]

stabilization effect on glycated amino acid assay reagent (relative sensitivity) (R-FOD-II; [1]): stabilization effect
Structure (SMILES): OC[C@H]1O[C@H](O[C@H]2O[C@H](CO)[C@@H](O)[C@H](O)[C@H]2O)[C@H](O)[C@@H](O)[C@@H]1O [trehalose, Trehalose]

The next lines start with the molecule.

Structure (SMILES): CC(CCC(=O)NCCC[N+](C)(C)CC(O)CS(=O)(=O)[O-])C1CCC2C3C(O)CC4CC(O)CCC4(C)C3CC(O)C12C (centres unmarked) [3-[3-cholamidopropyl)dimethylammonio]-2-hydroxypropane sulfonic acid]
Effect of γ-globulin (%) (Protease type-XXIV): 18.0%

Structure (SMILES): C[C@H](CCC(=O)NCCC[N+](C)(C)CCCS(=O)(=O)[O-])[C@H]1CC[C@H]2[C@@H]3[C@H](O)C[C@@H]4C[C@H](O)CC[C@]4(C)[C@H]3C[C@H](O)[C@]12C [3-[(3-cholamidopropyl)dimethylammonio]propane sulfonic acid]
Effect of γ-globulin (%) (Protease type-XXIV): 17.9%

Structure (SMILES): CCCC[N+](CCCC)(CCCC)Cc1ccccc1.[Cl-] [Benzyltributylammonium chloride]
Effect of γ-globulin (%) (Protease type-XXIV): 15.1%

Structure (SMILES): CC[N+](CC)(CC)Cc1ccccc1.[Br-] [Benzyltriethylammonium bromide]
Effect of γ-globulin (%) (Protease type-XXIV): 22.9%

Structure (SMILES): CC[N+](CC)(CC)Cc1ccccc1.[Cl-] [Benzyltriethylammonium chloride]
Effect of γ-globulin (%) (Protease type-XXIV): 16.5%

Structure (SMILES): C[N+](C)(C)Cc1ccccc1.[Br-] [Benzyltrimethylammonium bromide]
Effect of γ-globulin (%) (Protease type-XXIV): 23.1%

Structure (SMILES): C[N+](C)(C)Cc1ccccc1.[Cl-] [Benzyltrimethylammonium chloride]
Effect of γ-globulin (%) (Protease type-XXIV): 23.2%

Structure (SMILES): C[C@H](CCC(=O)O)[C@H]1CC[C@H]2[C@@H]3[C@H](O)C[C@@H]4C[C@H](O)CC[C@]4(C)[C@H]3C[C@H](O)[C@]12C [Cholic acid]
Effect of γ-globulin (%) (Protease type-XXIV): 23.0%

Structure (SMILES): N[C@@H](CCC(=O)O)C(=O)O [L-glutamic acid, L-Glutamic acid]
stabilization effect on glycated amino acid assay reagent (relative sensitivity) (R-FOD-II; [1]): stabilization effect

Structure (SMILES): NC(=O)CC[C@H](N)C(=O)O [L-glutamine, L-Glutamine]
stabilization effect on glycated amino acid assay reagent (relative sensitivity) (R-FOD-II; [1]): stabilization effect

Structure (SMILES): NCCCC[C@H](N)C(=O)O [L-lysine, L-Lysine]
stabilization effect on glycated amino acid assay reagent (relative sensitivity) (R-FOD-II; [1]): stabilization effect

Structure (SMILES): O=C(O)[C@@H]1CCCN1 [L-proline, L-Proline]
stabilization effect on glycated amino acid assay reagent (relative sensitivity) (R-FOD-II; [1]): stabilization effect

Structure (SMILES): CCCCCCCCCCCC[N+](C)(C)[O-] [Lauryldimethylamine oxide]
Effect of γ-globulin (%) (Protease type-XXIV): 17.8%

Structure (SMILES): CCCCCCCCCCCC[N+](C)(C)C.[Cl-] [Lauryltrimethylammonium chloride]
Effect of γ-globulin (%) (Protease type-XXIV): 16.7%

Structure (SMILES): O=C(O)c1ccc(SSc2ccc(C(=O)O)cn2)nc1 [Reagent 1, 6,6′-dithiodinicotinic acid]
albumin value by BCP method, sample Blood serum of healthy parsons (albumin): 38.2
albumin value by BCP method, sample GA (albumin; [2]): 7.6
albumin value by BCP method, sample NGA (albumin; [2]): 35.6
albumin value by BCP method, sample Blood serum of patients (albumin; [2]): 36.7

Structure (SMILES): C1CN(SSN2CCOCC2)CCO1 [Reagent 4, 4,4′-dithiodimorpholine]
effect of pretreatment on decreasing deviation from the immune method (albumin): particularly remarkable
albumin value by BCP method, sample GA (albumin; [2]): 7.7
albumin value by BCP method, sample NGA (albumin; [2]): 39.5
albumin value by BCP method, sample Blood serum of patients (albumin; [2]): 31.3
albumin value by BCP method, sample Blood serum of healthy parsons (albumin; [3]): 41.3

Structure (SMILES): Oc1ccc2cc(SSc3ccc4cc(O)ccc4c3)ccc2c1 [Reagent 6, 2,2′-dihydroxy-6,6′-dinaphthyl disulfide]
effect of pretreatment on decreasing deviation from the immune method (albumin): particularly remarkable
albumin value by BCP method, sample GA (albumin; [2]): 7.6
albumin value by BCP method, sample NGA (albumin; [2]): 36.9
albumin value by BCP method, sample Blood serum of patients (albumin; [2]): 37.7
albumin value by BCP method, sample Blood serum of healthy parsons (albumin; [3]): 39.1

Structure (SMILES): c1ccc(SSc2ccccn2)nc1 [Reagent 7, 2,2′-dithiopyridine]
effect of pretreatment on decreasing deviation from the immune method (albumin): particularly remarkable
albumin value by BCP method, sample GA (albumin; [2]): 7.8
albumin value by BCP method, sample NGA (albumin; [2]): 36.8
albumin value by BCP method, sample Blood serum of patients (albumin; [2]): 36.8
albumin value by BCP method, sample Blood serum of healthy parsons (albumin; [3]): 38.9

Structure (SMILES): CCCCCCCCCCCCOS(=O)(=O)[O-].[Na+] [Reagent 9, sodium lauryl sulfate]
albumin value by BCP method, sample Blood serum of healthy parsons (albumin): 43.7
effect of pretreatment on decreasing deviation from the immune method (albumin): particularly remarkable
albumin value by BCP method, sample GA (albumin; [2]): 7.8
albumin value by BCP method, sample NGA (albumin; [2]): 37.4
albumin value by BCP method, sample Blood serum of patients (albumin; [2]): 40.7

Structure (SMILES): N.N.O=S(=O)(O)O [ammonium sulfate, Ammonium sulfate]
stabilization effect on glycated amino acid assay reagent (relative sensitivity) (R-FOD-II; [1]): stabilization effect

Structure (SMILES): [Cl-].[Cl-].[Mg+2] [magnesium chloride, Magnesium chloride]
stabilization effect on glycated amino acid assay reagent (relative sensitivity) (R-FOD-II; [1]): stabilization effect
